Where two headings read alike, the source gives them in different places.

In this test the target is T1, human HDAC6 (Homo sapiens, UniProt Q9UBN7).
T1 construct: Reaction Biology Corporation
T1 sequence (Q9UBN7 1-1215): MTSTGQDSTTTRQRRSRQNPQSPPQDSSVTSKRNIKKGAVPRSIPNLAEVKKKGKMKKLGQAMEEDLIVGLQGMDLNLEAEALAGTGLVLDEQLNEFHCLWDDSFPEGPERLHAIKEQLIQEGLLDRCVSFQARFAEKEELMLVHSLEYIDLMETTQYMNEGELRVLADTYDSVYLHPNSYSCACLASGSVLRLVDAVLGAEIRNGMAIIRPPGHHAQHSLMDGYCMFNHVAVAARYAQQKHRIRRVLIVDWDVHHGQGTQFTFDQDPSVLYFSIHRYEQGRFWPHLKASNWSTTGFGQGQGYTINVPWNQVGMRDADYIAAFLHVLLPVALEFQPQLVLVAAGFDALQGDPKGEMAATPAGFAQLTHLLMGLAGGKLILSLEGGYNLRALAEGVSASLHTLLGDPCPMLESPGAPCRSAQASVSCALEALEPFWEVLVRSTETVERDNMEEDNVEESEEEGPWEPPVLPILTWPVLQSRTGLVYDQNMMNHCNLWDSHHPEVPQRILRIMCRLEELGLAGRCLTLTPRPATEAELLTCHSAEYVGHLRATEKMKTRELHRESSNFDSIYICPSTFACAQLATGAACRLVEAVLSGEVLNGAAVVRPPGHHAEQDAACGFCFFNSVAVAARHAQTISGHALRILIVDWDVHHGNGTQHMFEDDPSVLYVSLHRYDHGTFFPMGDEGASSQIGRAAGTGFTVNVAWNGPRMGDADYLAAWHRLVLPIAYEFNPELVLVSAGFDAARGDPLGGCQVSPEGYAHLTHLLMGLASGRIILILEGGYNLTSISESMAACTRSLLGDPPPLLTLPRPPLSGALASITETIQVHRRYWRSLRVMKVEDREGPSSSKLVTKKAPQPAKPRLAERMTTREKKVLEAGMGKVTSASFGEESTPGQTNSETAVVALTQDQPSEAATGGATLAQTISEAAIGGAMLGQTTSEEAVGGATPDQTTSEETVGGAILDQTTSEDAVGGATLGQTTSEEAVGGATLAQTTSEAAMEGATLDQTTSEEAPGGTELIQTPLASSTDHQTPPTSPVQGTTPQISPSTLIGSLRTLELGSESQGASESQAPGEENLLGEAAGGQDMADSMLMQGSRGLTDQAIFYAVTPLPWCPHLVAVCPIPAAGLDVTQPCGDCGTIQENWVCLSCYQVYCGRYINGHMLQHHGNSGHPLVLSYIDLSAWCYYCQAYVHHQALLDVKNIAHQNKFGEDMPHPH
As to the kind of experiment: HDAC6 inhibition, fluorogenic peptide substrate (Reaction Biology Corporation). The test is classed as biochemical. As for the experimental part: The compounds of the present invention were tested for inhibition of human HDAC6 at Reaction Biology Corporation by using 50 μM Fluorogenic peptide from p53 residues 379-382 (RHKKAc) as the substrate.

Where [1] appears, read: 50 μM fluorogenic peptide from p53 residues 379-382 (RHKKAc) as substrate, read-out: IC50, HDAC6 inhibition.

Turning to `CN1CCc2c(Cc3ccc(C(=O)NO)cc3)c3ccccc3n2C1` [Example 3, N-hydroxy-4-((2-methyl-1,2,3,4-tetrahydropyrimido[1,6-a]indol-5-yl)methyl)benzamide], the concentration for half-maximal inhibition (IC50) under setting [1] came to 10.7 nM. The same measure, in the same setting: in the case of `Cc1ccc2c(c1)c(Sc1ccc(C(=O)NO)cc1)c1n2CN(C)CC1` [Example 2, 4-((2,7-Dimethyl-1,2,3,4-tetrahydropyrimido[1,6-a]indol-5-yl)thio)-N-hydroxybenzamide] it was 35.5 nM; in that of `CN1CCn2c(c(Sc3ccc(C(=O)NO)cc3)c3ccccc32)C1=O` [Example 5, N-hydroxy-4-((2-methyl-1-oxo-1,2,3,4-tetrahydropyrazino[1,2-a]indol-10-yl)thio)benzamide], 1.76 nM.

`CN1CCc2c(C(=O)c3ccc(C(=O)NO)cc3)c3ccccc3n2C1` [Example 4, N-hydroxy-4-(2-methyl-1,2,3,4-tetrahydropyrimido[1,6-a]indole-5-carbonyl)benzamide] yielded a 50% inhibitory concentration (IC50) of 1490 nM. Turning to `CN1CCc2c(Sc3ccc(C(=O)NO)cc3)c3ccccc3n2C1` [Example 1, N-Hydroxy-4-((2-methyl-1,2,3,4-tetrahydropyrimido[1,6-a]indol-5-yl)thio)benzamide], the IC50 under setting [1] turned out to be 2.48 nM.

For orientation: IC50 means the concentration needed to halve the response being measured.

For the origin of these results see patent US9345905B2, “Heterocyclic amides compounds which are HDAC6 inhibitors and used as anti-tumoral agents” (Nanjing Allgen Pharma Co. Ltd., priority 2011, dated 2016).
